From patent publication US11286234B2, “Phenyl urea derivatives as N-formyl peptide receptor modulators” (Allergan, Inc., priority 2016, dated 2022) come the findings set out here.

Molecules are shown by their SMILES. pEC50: −log10 of the molar value. A value given as a limit tells only on which side of the number the result lay.

The target in one test is T1, FPR1 (Homo sapiens, UniProt P21462).
T1 construct: expressed in transfected cells
T1 sequence (P21462 1-350): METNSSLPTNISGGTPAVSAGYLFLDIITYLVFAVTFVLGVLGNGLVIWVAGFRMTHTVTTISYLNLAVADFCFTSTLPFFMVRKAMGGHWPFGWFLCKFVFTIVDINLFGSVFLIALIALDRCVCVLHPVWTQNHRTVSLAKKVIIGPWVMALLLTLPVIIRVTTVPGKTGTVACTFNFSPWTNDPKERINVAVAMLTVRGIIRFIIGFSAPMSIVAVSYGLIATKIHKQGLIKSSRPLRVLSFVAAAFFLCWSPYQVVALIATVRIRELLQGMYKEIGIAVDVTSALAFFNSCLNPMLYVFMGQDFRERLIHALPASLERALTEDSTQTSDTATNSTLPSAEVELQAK
The test can be described thus: Compound-induced calcium activity (FLIPR Tetra) in CHO-Gα16 cells stably expressing FPR1. To be noted: for pEC50 / Emax: CHO-Gα16 cells stably expressing FPR1; for pEC50: calcium activity, tested 0.61 to 10,000 nM, read-out: FPR1 Ga16-CHO EC50; for Emax: efficacy value in brackets, read-out: FPR1 Ga16-CHO (% eff); for Ratio FPR2:FPR1 (EC50): ratio of the EC50 for agonizing FPR2 to the EC50 for agonizing FPR1. Format: cell-based. How it is done: (§1) CHO-Gα16 cells stably expressing FPR1 or FPR2 were cultured in: Ham's F12 nutrient media, 10% fetal bovine serum, 1% PSA (penicillin, streptomycin, amphotericin B antiobiotic/antimycotic), 400 μg/ml geneticin and 50 μg/ml hygromycin. In general, the day before the experiment, 18,000 cells/well were plated in a 384-well clear bottom poly-D-lysine coated plate. The following day the screening compound-induced calcium activity was assayed on the FLIPR^Tetra. The drug plates were prepared in 384-well microplates using the EP3 and the MultiPROBE robotic liquid handling systems. Compounds were tested at concentrations ranging from 0.61 to 10,000 nM. Results are expressed as EC50 (nM) and efficacy values.

For another test, the target named is T2, FPR2 (Homo sapiens, UniProt P25090).
T2 construct: expressed in transfected cells
T2 sequence (P25090 1-351): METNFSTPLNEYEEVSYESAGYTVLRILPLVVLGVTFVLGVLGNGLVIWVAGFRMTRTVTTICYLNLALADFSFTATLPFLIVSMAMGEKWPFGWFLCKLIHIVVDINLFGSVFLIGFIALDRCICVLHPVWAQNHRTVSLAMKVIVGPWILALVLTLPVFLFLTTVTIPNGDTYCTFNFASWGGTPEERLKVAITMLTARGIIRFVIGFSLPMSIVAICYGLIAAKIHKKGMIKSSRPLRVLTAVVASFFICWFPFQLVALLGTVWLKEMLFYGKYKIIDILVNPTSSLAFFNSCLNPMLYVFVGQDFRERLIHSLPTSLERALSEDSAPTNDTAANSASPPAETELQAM
In words: Compound-induced calcium activity (FLIPR Tetra) in CHO-Gα16 cells stably expressing FPR2. Format: cell-based. To be noted: for pEC50: calcium activity, tested 0.61 to 10,000 nM, read-out: FPR2 Ga16-CHO EC50; for Emax: efficacy value in brackets, read-out: FPR2 Ga16-CHO (% eff). How it is done:
as §1

As usually defined, the pEC50 is −log10 of the EC50, conventionally taken in molar units. As for `O=C(Nc1ccc(Br)cc1)N[C@@H]1CCCC[C@H]1C(=O)O` (relative stereo) [Compound 18, (1R*,2R*)-2-(3-(4-Bromophenyl)ureido)cyclohexanecarboxylic acid], on FPR1, the pEC50 is 7.33, the Emax was 101% and the “Ratio FPR2:FPR1 (EC50)” value was determined as 5.2. On FPR2, the negative logarithm of the EC50 (pEC50) is 6.61 and the Emax worked out at 98%.

With `O=C(Nc1ccc(Br)cc1)N[C@H]1CCCC[C@H]1C(=O)O` (relative stereo) [Compound 19, (1R*,2S*)-2-(3-(4-Bromophenyl)ureido)cyclohexanecarboxylic acid], at FPR1, the pEC50 is 7.85, the Emax was 97% and the “Ratio FPR2:FPR1 (EC50)” value was 3.4. Also, at FPR2, the negative-log EC50 (pEC50) is 7.32 and the Emax turned out to be 102%.

For the compound `COC(=O)C(CNC(=O)Nc1ccc(Br)cc1)CC(C)C` (centres unmarked) [Compound 1, Methyl 2-[({[(4-bromophenyl)amino]carbonyl}amino)methyl]-4-methylpentanoate], on FPR1, the pEC50 is 5.39, the Emax turned out to be 72% and the “Ratio FPR2:FPR1 (EC50)” value stood at 0.17. Further, on FPR2, the pEC50 is 6.17 and the Emax is 47%.

For `COC(=O)C(CNC(=O)Nc1ccc(C(F)(F)F)cc1)CC(C)C` (centres unmarked) [Compound 2, Methyl 4-methyl-2-{[({[4-(trifluoromethyl)phenyl]amino}carbonyl)amino]methyl}pentanoate], at FPR1, the pEC50 was 4.98, the Emax was 57% and the “Ratio FPR2:FPR1 (EC50)” value is on record as 0.21. Besides, on FPR2, the pEC50 is 5.66 and the Emax is 78%.

In the case of `COC(=O)C(CNC(=O)Nc1ccc(Cl)cc1)CC(C)C` (centres unmarked) [Compound 3, Methyl 2-[({[(4-chlorophenyl)amino]carbonyl}amino)methyl]-4-methylpentanoate], on FPR1, the negative logarithm of the EC50 (pEC50) is less than 5.00, the Emax stood at 50% and the “Ratio FPR2:FPR1 (EC50)” value was less than 1. Moreover, on FPR2, the pEC50 is 5.88 and the Emax is 95%.

Consider `COC(=O)C(CNC(=O)Nc1ccc(Br)cc1F)CC(C)C` (centres unmarked) [Compound 4, Methyl 2[({[(4-bromo-2-fluorophenyl)amino]carbonyl}amino)methyl]-4-methylpentanoate], for which, on FPR1, the pEC50 is less than 4.72, the Emax is 21% and the “Ratio FPR2:FPR1 (EC50)” value was less than 1. Moreover, on FPR2, the pEC50 is 5.82 and the Emax was determined as 98%.

As for `COC(=O)C(CNC(=O)Nc1ccc(OC)cc1)CC(C)C` (centres unmarked) [Compound 5, Methyl 2-[({[(4-methoxyphenyl)amino]carbonyl}amino)methyl]-4-methylpentanoate], on FPR1, the pEC50 was less than 4.14, the Emax is 65% and the “Ratio FPR2:FPR1 (EC50)” value was less than 1. On FPR2, the pEC50 was 6.27 and the Emax is 42%.

Take `COC(=O)C(CNC(=O)Nc1ccc(OC(F)(F)F)cc1)CC(C)C` (centres unmarked) [Compound 6, Methyl 4-methyl-2-{[({[4-(trifluoromethoxy)phenyl]amino}carbonyl)amino]methyl}pentanoate]: at FPR1, the negative-log EC50 (pEC50) is less than 4.82 and the Emax was found to be 39%. For the same compound, at FPR2, the pEC50 was less than 6.00 and the Emax was determined as 67%.

`CC(C)CC(CNC(=O)Nc1ccc(Br)cc1)C(=O)O` (centres unmarked) [Compound 7, 2-[({[(4-Bromophenyl)amino]carbonyl}amino)methyl]-4-methylpentanoic acid]: at FPR1, the pEC50 was 7.46, the Emax turned out to be 97% and the “Ratio FPR2:FPR1 (EC50)” value was determined as 37. Also, at FPR2, the pEC50 was 5.89 and the Emax came to 90%.

With `CC(C)CC(CNC(=O)Nc1ccc(C(F)(F)F)cc1)C(=O)O` (centres unmarked) [Compound 8, 4-Methyl-2-{[({[4-(trifluoromethyl)phenyl}amino}carbonyl)amino]methyl}pentanoic acid], at FPR1, the negative-log EC50 (pEC50) is 7.27, the Emax amounted to 105% and the “Ratio FPR2:FPR1 (EC50)” value stood at 25. Further, on FPR2, the negative logarithm of the EC50 (pEC50) was 5.87 and the Emax worked out at 92%.

For `CC(C)CC(CNC(=O)Nc1ccc(Cl)cc1)C(=O)O` (centres unmarked) [Compound 9, 2-[({[(4-Chlorophenyl)amino]carbonyl}amino)methyl]-4-methylpentanoic acid], at FPR1, the negative logarithm of the EC50 (pEC50) is 6.79, the Emax came to 95% and the “Ratio FPR2:FPR1 (EC50)” value turned out to be 18. Besides, on FPR2, the pEC50 is 5.52.

On to `CC(C)CC(CNC(=O)Nc1ccc(Br)cc1F)C(=O)O` (centres unmarked) [Compound 10, 2[({[(4-Bromo-2-fluorophenyl)amino]carbonyl}amino)methyl]-4-methylpentanoic acid], for which, on FPR1, the pEC50 was 6.95, the Emax was determined as 98% and the “Ratio FPR2:FPR1 (EC50)” value was 17. At FPR2, the pEC50 was 5.72 and the Emax is 94%.

As to `COc1ccc(NC(=O)NCC(CC(C)C)C(=O)O)cc1` (centres unmarked) [Compound 11, 2-[({[(4-methoxyphenyl)amino]carbonyl}amino)methyl]-4-methylpentanoic acid], on FPR1, the pEC50 is 5.92 and the Emax turned out to be 92%. Besides, on FPR2, the pEC50 was less than 6.00 and the Emax worked out at 56%.

As to `CC(C)CC(CNC(=O)Nc1ccc(OC(F)(F)F)cc1)C(=O)O` (centres unmarked) [Compound 12, 4-Methyl-2-{[({[4-(trifluoromethoxy)phenyl]amino}carbonyl)amino]methyl}pentanoic acid], on FPR1, the negative-log EC50 (pEC50) was 5.93, the Emax is 81% and the “Ratio FPR2:FPR1 (EC50)” value is given as 6.9. For the same compound, on FPR2, the negative logarithm of the EC50 (pEC50) was 5.09 and the Emax is 40%.

For the compound `CC(C)C(CNC(=O)Nc1ccc(Br)cc1)C(=O)O` (centres unmarked) [Compound 13, 2-((3-(4-Bromophenyl)ureido)methyl)-3-methylbutanoic acid], on FPR1, the pEC50 was 5.66, the Emax amounted to 97% and the “Ratio FPR2:FPR1 (EC50)” value is given as 1.2. At FPR2, the negative-log EC50 (pEC50) is 5.57 and the Emax was determined as 83%.

Turning to `CCCC(CNC(=O)Nc1ccc(Br)cc1)C(=O)O` (centres unmarked) [Compound 14, 2-((3-(4-Bromophenyl)ureido)methyl)pentanoic acid], at FPR1, the pEC50 is 6.61, the Emax amounted to 99% and the “Ratio FPR2:FPR1 (EC50)” value was determined as 5.4. At FPR2, the pEC50 is 5.88 and the Emax amounted to 83%.

For `O=C(NCC(Cc1ccccc1)C(=O)O)Nc1ccc(Br)cc1` (centres unmarked) [Compound 15, 2-Benzyl-3-(3-(4-bromophenyl)ureido)propanoic acid], on FPR1, the negative logarithm of the EC50 (pEC50) was 7.17, the Emax was 94% and the “Ratio FPR2:FPR1 (EC50)” value is reported as 5.2. On FPR2, the pEC50 was 6.45 and the Emax amounted to 93%.

Consider `CC(CNC(=O)Nc1ccc(Br)cc1)C(=O)O` (centres unmarked) [Compound 16, 3-(3-(4-Bromophenyl)ureido)-2-methylpropanoic acid], for which, on FPR1, the pEC50 was 5.55, the Emax turned out to be 84% and the “Ratio FPR2:FPR1 (EC50)” value is listed as 1.1. For the same compound, on FPR2, the pEC50 is 5.51 and the Emax worked out at 62%.

As to `CCC(CNC(=O)Nc1ccc(Br)cc1)C(=O)O` (centres unmarked) [Compound 17, 2-((3-(4-Bromophenyl)ureido)methyl)butanoic acid], at FPR1, the negative logarithm of the EC50 (pEC50) was 5.67, the Emax is 85% and the “Ratio FPR2:FPR1 (EC50)” value is recorded as 1.1. For the same compound, on FPR2, the negative logarithm of the EC50 (pEC50) was 5.64 and the Emax stood at 71%.

In the case of `O=C(Nc1ccc(Br)cc1)NC1CCCCCCC1C(=O)O` (centres unmarked) [Compound 20, 2-(3-(4-Bromophenyl)ureido)cyclooctanecarboxylic acid], on FPR1, the pEC50 was 7.29 and the “Ratio FPR2:FPR1 (EC50)” value came out at 1.6. Besides, at FPR2, the pEC50 was 7.09 and the Emax was 97%.

Regarding `CC(C)CC(CCNC(=O)Nc1ccc(Br)cc1)S(=O)(=O)O` (centres unmarked) [Compound 21, 1-(3-(4-Bromophenyl)ureido)-5-methylhexane-3-sulfonic acid], on FPR1, the pEC50 is 8.15, the Emax amounted to 99% and the “Ratio FPR2:FPR1 (EC50)” value is reported as 179. In addition, at FPR2, the pEC50 was 5.90 and the Emax amounted to 89%.
